Assay results: patent US10844013B2, “Phenyl amino piperidine mTORC inhibitors and uses thereof” (Navitor Pharmaceuticals, Inc., priority 2016, dated 2020)
Counter-ions that a name gives are not always drawn.

How the values were obtained:
[1] = tested on: pAKT (p-Akt 1/2/3 (Ser473)) in MCF-7 cells; assay: AlphaLISA Ultra pAKT assay; type: cell-based; details: Homo sapiens, MCF7, 2 hours compound incubation
How it was run: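 AlphaLISA read-out (2 h acceptor-bead, then 2 h donor-bead incubation) on thawed lysates of MCF-7 cells exposed to compounds for 2 h in 0.5% DMSO. Cells had been plated 20-24 h and given fresh medium 2 h before dosing.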

[2] = tested on: pS6K1 (p-p70 S6 Kinase (Thr389)) in MCF-7 cells; assay: AlphaLISA Ultra pS6K1 assay; type: cell-based; details: Homo sapiens, MCF7, 2 h, 2 hours compound incubation
How it was run: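 MCF-7 cells seeded 20–24 h, medium refreshed 2 h, then treated 2 h with compound (0.5% DMSO final). Lysates probed for Thr389-phosphorylated p70 S6K by AlphaLISA Ultra, 2 h acceptor then 2 h donor bead incubation, read on a multimode reader.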

IC50 [1] [µM] | IC50 [2] [µM] | SMILES
> 10 | 0.01 to 1 | Cc1cc(C)c(C(=O)N2CCN(c3ncccc3S(N)(=O)=O)CC2)c(C)c1N[C@H]1CCN(c2ccccc2C#N)C[C@@H]1C [I-181, 2-(4-(3-(((3S,4S)-1-(2-cyanophenyl)-3-methylpiperidin-4-yl)amino)-2,4,6-trimethylbenzoyl)piperazin-1-yl)pyridine-3-sulfonamide]
> 10 | 1 to 3 | CCCN(c1cc(C(=O)N2CCN(c3ccccc3S(N)(=O)=O)CC2)c(C)cc1C)C1CCN(c2ccccc2C#N)CC1 [I-23, 2-(4-(5-((1-(2-Cyanophenyl)piperidin-4-yl)(propyl)amino)-2,4-dimethylbenzoyl)piperazin-1-yl)benzenesulfonamide]
> 10 | 1 to 3 | Cc1cc(C)c(C(=O)N2CCN(c3ncccc3F)[C@@H](CO)C2)cc1NC1CCN(c2ccccc2C#N)CC1 [I-115, (R)-2-(4-(5-(4-(3-Fluoropyridin-2-yl)-3-(hydroxymethyl)piperazine-1-carbonyl)-2,4-dimethylphenylamino)piperidin-1-yl)benzonitrile]
> 10 | > 10 | Cc1cc(C)c(C(=O)NC2CCN(c3ccccc3C#N)CC2)cc1NC1CCN(c2ccccc2C#N)CC1 [I-97, N-(1-(2-Cyanophenyl)piperidin-4-yl)-5-(1-(2-cyanophenyl)piperidin-4-ylamino)-2,4-dimethylbenzamide]
> 10 | 0.01 to 1 | Cc1cc(C)c(C(=O)N2CCN(c3cccnc3[S@](C)(=N)=O)CC2)c(C)c1NC1CCN(c2ncccc2Cl)CC1 [I-175, (R)-(3-(4-(3-((1-(3-chloropyridin-2-yl)piperidin-4-yl)amino)-2,4,6-trimethylbenzoyl)piperazin-1-yl)pyridin-2-yl)(imino)(methyl)-λ^6-sulfanone Trifluoroacetate Salt]
> 10 | 0.01 to 1 | Cc1cc(C)c(C(=O)N2CCN(c3cc(F)c(F)cc3C#N)C[C@@H]2C)cc1NC1CCN(c2ccccc2C#N)CC1 [I-69, 2-[(3S)-4-(5-{[1-(2-Cyanophenyl)piperidin-4-yl]amino}-2,4-dimethylbenzoyl)-3-methylpiperazin-1-yl]-4,5-difluorobenzonitrile]
> 10 | 1 to 3 | Cc1cc(C)c(C(=O)N2CCN(c3ccccc3S(N)(=O)=O)CC2)cc1N[C@H]1CCN(c2ccccc2C#N)C[C@H]1C [I-169, 2-(4-(5-(((3R,4S)-1-(2-cyanophenyl)-3-methylpiperidin-4-yl)amino)-2,4-dimethylbenzoyl)piperazin-1-yl)benzenesulfonamide]
> 10 | > 10 | Cc1cc(C)c(C(=O)N2CCN(c3cccc(F)c3S(N)(=O)=O)CC2)cc1NC1CCN(c2c(F)cc(F)cc2C#N)CC1 [I-187, 2-(4-(5-(1-(2-cyano-4,6-difluorophenyl)piperidin-4-ylamino)-2,4-dimethylbenzoyl)piperazin-1-yl)-6-fluorobenzenesulfonamide]
> 10 | 1 to 3 | Cc1nc(C)c(C(=O)N2CCN(c3ccccc3)[C@H](CO)C2)c(C)c1NC1CCN(c2ccc(F)cc2C#N)CC1 [I-154, 5-fluoro-2-[4-({5-[(3S)-3-(hydroxy-methyl)-4-phenyl-piperazine-1-carbonyl]-2,4,6-trimethyl-pyridin-3-yl}amino)piperidin-1-yl] benzonitrile]
> 10 | > 10 | N#Cc1ccccc1N1CCC(Nc2cc(C(=O)N3CCN(c4ccccc4S(N)(=O)=O)CC3)c(Cl)cc2Cl)CC1 [I-125, 2-(4-(2,4-dichloro-5-(1-(2-cyanophenyl)piperidin-4-ylamino)benzoyl)piperazin-1-yl)benzenesulfonamide]
0.01 to 1 | 0.01 to 1 | Cc1cc(C)c(C(=O)N2CCN(c3ccc(F)cn3)[C@H](CO)C2)c(C)c1NC1CCN(c2ccc(F)cn2)CC1 [I-146, [(3S)-4-(5-Fluoro-2-pyridyl)-3-(hydroxymethyl)piperazin-1-yl]-[3-[[1-(5-fluoro-2-pyridyl)-4-piperidyl]amino]-2,4,6-trimethyl-phenyl]methanone]
> 10 | 1 to 3 | COc1cccc(N2CCC(Nc3cc(C(=O)N4CCN(c5ccccc5S(N)(=O)=O)CC4)c(C)cc3C)CC2)c1 [I-5, 2-(4-(5-(1-(3-Methoxyphenyl)piperidin-4-ylamino)-2,4-dimethylbenzoyl)piperazin-1-yl) benzenesulfonamide]
> 10 | 5 to 10 | Cc1cc(C)c(C(=O)N2CCN(CC(F)(F)F)[C@H](CO)C2)cc1NC1CCN(c2ccccc2C#N)CC1 [I-98, (S)-2-(4-(5-(3-(Hydroxymethyl)-4-(2,2,2-trifluoroethyl)piperazine-1-carbonyl)-2,4-dimethylphenylamino)piperidin-1-yl)benzonitrile]
> 10 | 0.01 to 1 | Cc1cc(C)c(C(=O)N2CCN(c3cccnn3)[C@H](CO)C2)c(C)c1NC1CCN(c2ccccc2C#N)CC1 [I-140, 2-[4-({3-[(3S)-3-(hydroxy-methyl)-4-(pyridazin-3-yl)piperazine-1-carbonyl]-2,4,6-trimethyl-phenyl}amino)piperidin-1-yl] benzonitrile]
> 10 | 0.01 to 1 | Cc1cc(C)c(C(=O)N2CCN(c3ccccc3C(N)=O)CC2)cc1NC1CCN(c2ccccc2C#N)CC1 [I-29]
> 10 | 0.01 to 1 | Cc1cc(C)c(C(=O)N2CCN(c3ccccc3)[C@H](CO)C2)c(C)c1NC1CCN(c2ccc(F)cn2)CC1 [I-145, [(2S)-4-(3-{[1-(5-fluoropyridin-2-yl)piperidin-4-yl]amino}-2,4,6-trimethyl-benzoyl)-1-phenyl-piperazin-2-yl]MeOH]
> 10 | > 10 | Cc1cc(C)c(C(=O)N2CCN[C@H](CO)C2)cc1NC1CCN(c2ccccc2C#N)CC1 [I-8, (S)-2-(4-(5-(3-(hydroxymethyl)piperazine-1-carbonyl)-2,4-dimethylphenylamino)piperidin-1-yl)benzonitrile]
> 10 | 0.01 to 1 | Cc1cc(C)c(C(=O)N2CCN(c3ccccc3)[C@H](CN)C2)c(C)c1NC1CCN(c2ccccc2C#N)CC1 [I-137, 2-[4-({3-[(3R)-3-(Aminomethyl)-4-phenylpiperazine-1-carbonyl]-2,4,6-trimethylphenyl}amino)piperidin-1-yl]benzonitrile]
> 10 | 0.01 to 1 | Cc1cc(C)c(C(=O)N2CCN(c3ccccn3)[C@H](CO)C2)c(C)c1NC1CCN(c2cnccn2)CC1 [I-149, [(2S)-1-(pyridin-2-yl)-4-(2,4,6-trimethyl-3-{[1-(pyrazin-2-yl)piperidin-4-yl]amino}benzoyl)piperazin-2-yl]MeOH]
> 10 | 0.01 to 1 | Cc1cc(C)c(C(=O)N2CCN(c3ccccc3)[C@H](C(N)=O)C2)c(C)c1NC1CCN(c2cnccn2)CC1 [I-150, (2S)-1-phenyl-4-(2,4,6-trimethyl-3-{[1-(pyrazin-2-yl)piperidin-4-yl]amino}benzoyl) piperazine-2-carboxamide]
> 10 | 3 to 5 | Cc1cc(F)c(C(=O)N2CCN(c3ccccc3S(N)(=O)=O)CC2)cc1NC1CCN(c2ccccc2C#N)CC1 [I-113, 2-(4-(5-(1-(2-Cyanophenyl)piperidin-4-ylamino)-2-fluoro-4-methylbenzoyl)piperazin-1-yl)benzenesulfonamide]
